Results published in US8388975B2, “Cancer antigen peptides derived from WT1” (International Institute of Cancer Immunology, Inc., priority 2004, dated 2013).
Read-outs that look alike come from different tables or passages of the source. Ends that are not written are not given here.

Tests used:
B-LCL cells [1] = system: B-LCL cells
Protocol: (§1) The cytotoxic activity of CTLs on target cells was measured by ^51Cr-release assay. The ^51Cr-labeled target cells (1×10^4 cells/100 μL in total) were cocultured with different numbers of effector cells (100 μL) in a round-bottom 96-well plate. After culturing at 37° C. for 3-5 hours, the plate was centrifuged to separate the supernatant (100 μL) which was subjected to the measurement of γ ray. Specific cytotoxicity (% specific lysis) was calculated as follows: % specific lysis=(cpm experimental release−cpm spontaneous release)/(cpm maximal release−cpm spontaneous release)×100
One week later, PBMCs were pulsed with the peptide of SEQ ID NO: 8, and used as stimulators in the stimulation. The stimulation was conducted every one week 3 times in total. After 3 times of stimulation, CD8-positive cells were enriched by negative selection method. Further, stimulation with the peptide of SEQ ID NO: 8 was conducted 2 times. […] Experiments were carried out in the same manner as above using a peptide of SEQ ID NO: 9 and a peptide of SEQ ID NO: 2.

B-LCL cells [2] = system: B-LCL cells; remark: listed apart in the source
Protocol: as §1

Protocol for JY cell line: (§2) After obtaining informed-consent, blood was collected from HLA-A*0201-positive healthy subjects and peripheral blood mononuclear cells (PBMCs) were isolated using Ficoll-Hypaque separation solution. HLA-A*0201-positive T2 cell lines incapable of presenting endogenous peptides to HLA due to deficit in TAP gene (J. Immunol. 150: 1763, 1993) were pulsed with the peptide of SEQ ID NO: 3 at 20 μM for 2 hours, then radiated (7500 cGy), and co-cultured with PBMCs at the cell number ratio of 1:1. As the culture solution, a complete medium composed of 45% AIM-V medium, 45% RPMI1640 medium, 10% inactivated human serum, 0.1 mM MEM non-essential amino acids, 100 ng/mL streptomycin, 100 IU/mL penicillin and 25 ng/mL 2-mercaptoethanol was used. Seven days later, the second-time stimulation was conducted in a similar manner, and thereto was added 25 IU/mL of IL-2 (Shionogi & Co., Ltd) on the next day. Stimulation was conducted five times in total, and effector cells obtained after 5 days from the last stimulation were used in the measurement of cytotoxicity.
(§3) The cytotoxic activity of CTLs on target cells was measured by ^51Cr-release assay. […] Specific cytotoxicity (% specific lysis) was calculated as follows: % specific lysis=(cpm experimental release−cpm spontaneous release)/(cpm maximal release−cpm spontaneous release)×100
Protocol for T2 cells: After obtaining informed-consent, blood was collected from HLA-A*0201-positive healthy subjects and peripheral blood mononuclear cells (PBMCs) were isolated using Ficoll-Hypaque separation solution. HLA-A*0201-positive T2 cell lines incapable of presenting endogenous peptides to HLA due to deficit in TAP gene (J. Immunol. 150: 1763, 1993) were pulsed with the peptide of SEQ ID NO: 3 at 20 μM for 2 hours, then radiated (7500 cGy), and co-cultured with PBMCs at the cell number ratio of 1:1. […]
as §3
The “spontaneous release” and the “maximal release” were measured in the supernatant obtained from the culture of target cells and that obtained from the culture of target cells treated with 1% Triton X-100 solution, respectively. […] The cytotoxic activity was measured using, as target cells, T2 cells pulsed with the same peptide as used in the stimulation or T2 cells not pulsed with the peptide.
Protocol for TF-1 cell line: as §2, §3

Sequence | cytotoxic activity (% specific lysis) of CTLs induced by stimulation with the peptide (B-LCL cells [1]) | cytotoxic activity (% specific lysis) of CTLs induced by stimulation with the peptide (B-LCL cells [2]) | cytotoxic activity of CTLs induced by stimulation with the peptide on JY cells (JY cell line) | cytotoxic activity of CTLs induced by stimulation with the peptide on TF-1 cells (TF-1 cell line) | cytotoxic activity (% specific lysis) of CTLs induced by stimulation with the peptide (T2 cells)
QGSLGEQQY [SEQ ID NO: 9] | more potent cytotoxic activity on B-LCL cells pulsed with the peptide than on B-LCL cells not-pulsed with the peptide |  |  |  | 
DQLKRHQRR [SEQ ID NO: 2] | more potent cytotoxic activity on B-LCL cells pulsed with the peptide than on B-LCL cells not-pulsed with the peptide | more potent cytotoxic activity on B-LCL cells pulsed with the peptide than on B-LCL cells not-pulsed with the peptide |  |  | 
DLNALLPAV [SEQ ID NO: 3, Asp Leu Asn Ala Leu Leu Pro Ala Val] |  |  | not JY cells | killed TF-1 cells | more potent cytotoxic activity on T2 cells pulsed with the peptide than on T2 cells not-pulsed with the peptide
VTFDGTPSY [SEQ ID NO: 8] | more potent cytotoxic activity on B-LCL cells pulsed with the peptide than on B-LCL cells not-pulsed with the peptide |  |  |  | 
